Data set [1] deals with sciatic nerve. The data set is described as follows: Sciatic blockade by liquid bupivacaine and/or dexamethasone in solution (Table 1). In kind it is in vivo, rat. The protocol:
(§1) At least five rats were used in each test.
(§2) Sensory blockade or anesthesia effect was examined using art-known techniques. In addition, motor tests were performed at each time point to examined each rat's ability to hop and to place weight on it's hind leg by art-known techniques. Each leg was tested three times, and the latency of the contralateral leg was tested to provide a control. The animals were handled and cared for according to institution, state, and federal regulations.

The test system of data set [2] is sciatic nerve. As to the kind of experiment: Motor block: additives in the injection fluid with bupivacaine microspheres (Table 2). In kind it is in vivo, rat.
Source text: The rats were behaviorally tested for sensory and motor anesthesia in a quiet observation room. Testing was only performed in rats showing appropriate baseline hot plate latencies after at least-one week of testing. In all testing conditions, the experimenter recording the behavior was unaware of the side containing the local anesthetic. To assess motor anesthesia, a 4-point scale based on visual observation was devised: (1) normal appearance, (2) intact dorsiflexion of foot with an impaired ability to splay toes when elevated by the tail, (3) toes and foot remained plantar flexed with no splaying ability, and (4) loss of dorsiflexion, flexion of toes, and impairment of gait. For graphing clarity, partial motor anesthesia equals a score of 2 and dense motor anesthesia is a score of either 3 or 4.
as §1, §2

The subject of data set [3] is sciatic nerve. As to the kind of experiment: Sensory block: additives in the injection fluid with bupivacaine microspheres (Table 2). The conditions noted are these: for sensory blockade latency: with bupivacaine microspheres, FIG. 5A. Format: in vivo, rat. The protocol:
Sensory anesthesia was measured by the time required for each rat to withdraw its hind paw from a 56° C. plate (IITC Life Science Instruments, Model 35-D, Woodland Hills, Calif.). The rats were allowed to adjust to their surroundings in a quiet room for at least 30 minutes before testing. The rats were held with a cloth gently. wrapped above their waist to restrain the upper extremities and obstruct vision. The rats were positioned to stand with one hind paw on a hot plate and the other on a room temperature plate. With a computer data collection system to (Apple IIe with a footpad switch), latency to withdraw each hind paw to the hot plate was recorded by alternating paws and allowing at least fifteen seconds of recovery between each measurement. If no withdrawal occurred from the hot plate within 12 seconds, the trial was terminated to prevent injury and the termination time was recorded. Testing ended after five measurements per side, the high and low points were disregarded, and the mean of the remaining three points was calculated for each side. Animals were handled in accordance with institutional, state and federal guidelines.
as §1, §2

The test system of data set [4] is sciatic nerve. The data set is described as follows: Restoration of waning sensory anesthesia by dexamethasone (hot plate latency). In kind it is in vivo, rat. The following applies: 0.032 mg/kg injected at the original site 6 hours after bupivacaine microspheres.
Experimental: Sensory anesthesia was measured by the time required for each rat to withdraw its hind paw from a 56° C. plate (IITC Life Science Instruments, Model 35-D, Woodland Hills, Calif.). The rats were allowed to adjust to their surroundings in a quiet room for at least 30 minutes before testing. The rats were held with a cloth gently. wrapped above their waist to restrain the upper extremities and obstruct vision. The rats were positioned to stand with one hind paw on a hot plate and the other on a room temperature plate. With a computer data collection system to (Apple IIe with a footpad switch), latency to withdraw each hind paw to the hot plate was recorded by alternating paws and allowing at least fifteen seconds of recovery between each measurement. If no withdrawal occurred from the hot plate within 12 seconds, the trial was terminated to prevent injury and the termination time was recorded. Testing ended after five measurements per side, the high and low points were disregarded, and the mean of the remaining three points was calculated for each side. […]
Sensory latency was determined by the hot plate foot withdrawal method described above. […]
The conditions of data set [5]: 0.05% in the suspending medium.
Experimental: Male Sprague-Dawley Charles River Rats, weighing between 200 and 350 grams were used to test the ability of each additive to prolong blockade or anesthesia effect. 150 mg of bupivacaine per kg of rat and a known concentration of each of the additives were placed in 0.6 mls of injection vehicle (5 g/L medium molecular weight carboxymethylcellulose, 1 g/L Tween 80). If the additive was a solid, it was dissolved in ethanol and aliquots which varied in concentrations from 0.0220 mg/kg of rat, and added to the injection fluid. If the additive was in liquid form, it was added directly to the injection fluid. The microsphere/additive mixture was vortexed (Scientific Industries Vortex Genie®) at maximum speed for three minutes prior to injection. The injection was performed while the rats were under general anesthetic, by locating the greater trochanter and injecting slightly below and proximal to it. At least five rats were used in each test.
[6] abbreviates: additive 0.02 mg/Kg rat with bupivacaine microspheres.
Setting [7] is: additive 0.14 mg/Kg rat with bupivacaine microspheres.
The mark [8] stands for this setting: additive 2.0 mg/Kg rat with bupivacaine microspheres.
Where [9] appears, read: additive 6.3 mg/Kg rat with bupivacaine microspheres.
The mark [10] stands for this setting: additive 0.032 mg/Kg rat with bupivacaine microspheres.
Where [11] appears, read: additive 0.25 mg/Kg rat with bupivacaine microspheres.
Where [12] appears, read: additive 0.8 mg/Kg rat with bupivacaine microspheres.
Where [13] appears, read: in the suspending medium with bupivacaine microspheres.
Setting [14] is: additive 0.1 mg/Kg rat with bupivacaine microspheres.
Setting [15] is: additive 3.1 mg/Kg rat with bupivacaine microspheres.
The mark [16] stands for this setting: additive 1.0 mg/Kg rat with bupivacaine microspheres.
Where [17] appears, read: additive 1.7 mg/Kg rat with bupivacaine microspheres.
Setting [18] is: additive 1.25 mg/Kg rat with bupivacaine microspheres.
[19] abbreviates: additive 10 mg/Kg rat with bupivacaine microspheres.
Where [20] appears, read: additive 2.1 mg/Kg rat with bupivacaine microspheres.
Setting [21] is: additive 20 mg/Kg rat with bupivacaine microspheres.
[22] abbreviates: additive 0.125 mg/Kg rat with bupivacaine microspheres.
Where [23] appears, read: additive 0.01 mg/Kg rat with bupivacaine microspheres.

The record followed here is patent publication US6426339B1, “Formulations and methods for providing prolonged local anesthesia” (Children's Medical Center Corporation, priority 1996, dated 2002).

SMILES strings stand for the structures. “Also recorded” adds a separate entry of the source.

With `C[C@@H]1C[C@H]2[C@@H]3CCC4=CC(=O)C=C[C@]4(C)[C@@]3(F)[C@@H](O)C[C@]2(C)[C@@]1(O)C(=O)CO` [dexamethasone], the “LENGTH OF Blockade or anesthesia effect” value in the data set with sciatic nerve [1] (bupivacaine 3 mg/kg rat plus dexamethasone 0.16 mg/kg rat) was 2 to 3 h; with sciatic nerve [1] (bupivacaine 3 mg/kg rat plus dexamethasone 1.6 mg/kg rat), 2 to 3 h; with sciatic nerve [1] (dexamethasone 0.16 mg/kg rat, no bupivacaine), 0 h. For the same compound, the Motor block with sciatic nerve [2] (setting [6]) amounted to 19.0 ± 8.0 h; in the data set with sciatic nerve [2] (setting [7]) it was 38.0 ± 5.0 h; with sciatic nerve [2] (setting [8]), 34.0 ± 12.0 h. The Sensory block was found to be 17.0 ± 11.0 h in the data set on sciatic nerve [3] (setting [6]), 47.0 ± 8.0 h in the data set with sciatic nerve [3] (setting [7]) and 36.0 ± 19.0 h in the data set on sciatic nerve [3] (setting [8]). Further, the values for the sensory blockade latency entry in the data set with sciatic nerve [3] (after 50 hours), with sciatic nerve [3] (after 100 hours) and in the data set on sciatic nerve [3] (initial) were “about 7 seconds”, “about 2.5 seconds” and 12 s, respectively. Besides, in the data set with sciatic nerve [4], the “hot plate sensory latency after restoration” value is reported as “about 11 sec”.
For the compound `O=C(c1ccccc1)c1ccc2n1CCC2C(=O)O` (stereo not shown) [Ketoralac], the Motor block in the data set on sciatic nerve [2] (setting [8]) was 7.0 ± 0.4 h; with sciatic nerve [2] (setting [9]), 10.0 ± 4.0 h. The results for the Sensory block in the data set with sciatic nerve [3] (setting [8]) and in the data set with sciatic nerve [3] (setting [9]) were 6.0 ± 0.7 h and 8.0 ± 2.0 h, respectively.
For `C[C@H]1C[C@H]2[C@@H]3CCC4=CC(=O)C=C[C@]4(C)[C@@]3(F)[C@@H](O)C[C@]2(C)[C@@]1(O)C(=O)CO` [Betamethasone, betamethasone], the Motor block in the data set with sciatic nerve [2] (setting [10]) was found to be 15.0 ± 4.0 h; in the data set with sciatic nerve [2] (setting [11]), 38.0 ± 11.0 h; in the data set with sciatic nerve [2] (setting [12]), 39.0 ± 5.0 h; in the data set with sciatic nerve [2] (setting [8]) it was 39.0 ± 11.0 h. The Sensory block is 19.0 ± 4.0 h in the data set on sciatic nerve [3] (setting [10]), 36.0 ± 10.0 h in the data set with sciatic nerve [3] (setting [11]), 46.0 ± 7.0 h with sciatic nerve [3] (setting [12]) and 44.0 ± 13.0 h in the data set with sciatic nerve [3] (setting [8]). Moreover, the “duration of prolonged blockade or local anesthesia effect” value in the data set with sciatic nerve [3] (setting [13]) is recorded as “up to 45 hours”.
As for `CC(C)CCC[C@@H](C)[C@H]1CC[C@H]2[C@@H]3CC=C4C[C@@H](O)CC[C@]4(C)[C@H]3CC[C@]12C` [Cholesterol], the values for the Motor block in the data set with sciatic nerve [2] (setting [14]) and with sciatic nerve [2] (setting [15]) were 4.0 ± 1.0 h and 5.0 ± 1.0 h, respectively. Further, the “prolongation of blockade compared with bupivacaine microspheres (in words)” value with sciatic nerve [3] (0.3 mg/kg incorporated into bupivacaine loaded microspheres) is “did not result in a prolongation of blockade or anesthesia effect”. The results for the Sensory block in the data set with sciatic nerve [3] (setting [14]) and with sciatic nerve [3] (setting [15]) were 4.0 ± 0.4 h and 8.0 ± 3.0 h, respectively.
In the case of `CC(=O)[C@H]1CC[C@H]2[C@@H]3CCC4=CC(=O)CC[C@]4(C)[C@H]3CC[C@]12C` [Progesterone], in the data set with sciatic nerve [2] (setting [8]), the Motor block is 6.0 ± 1.0 h. Further, in the data set on sciatic nerve [3] (setting [8]), the Sensory block worked out at 8.0 ± 1.0 h.
`C[C@]12CC[C@H]3[C@@H](CCC4=CC(=O)CC[C@@]43C)[C@@H]1CC[C@@H]2O` [Testosterone]: the results for the Motor block in the data set on sciatic nerve [2] (setting [16]) and in the data set on sciatic nerve [2] (setting [17]) were 6.0 ± 1.0 h and 15.0 ± 5.0 h, respectively. The Sensory block worked out at 7.0 ± 2.0 h with sciatic nerve [3] (setting [16]) and 15.0 ± 5.0 h with sciatic nerve [3] (setting [17]). In addition, in the data set with sciatic nerve [3] (setting [13]), the “degree of prolongation of blockade (in words)” value (“degree” below) is listed as “mild prolongation”.
With `C[C@]12CCC(=O)C=C1CC[C@@H]1[C@@H]2[C@@H](O)C[C@@]2(C)[C@H]1CC[C@]2(O)C(=O)CO` [Hydrocortisone, hydrocortisone], the Motor block in the data set on sciatic nerve [2] (setting [14]) came to 10.0 ± 3.0 h; in the data set on sciatic nerve [2] (setting [18]) it was 16.0 ± 3.0 h; in the data set with sciatic nerve [2] (setting [19]), 31.0 ± 8.0 h. Further, the values for the Sensory block with sciatic nerve [3] (setting [14]), in the data set on sciatic nerve [3] (setting [18]) and with sciatic nerve [3] (setting [19]) were 10.0 ± 3.0 h, 15.0 ± 5.0 h and 36.0 ± 10.0 h, respectively. Moreover, in the data set with sciatic nerve [3] (setting [13]), the “degree” value is listed as “mild, but statistically significant prolongation; also recorded: cannot be made as effective as dexamethasone”.
Regarding `C[C@H]1C[C@@H]2[C@H]([C@@H](O)C[C@@]3(C)[C@H]2CC[C@]3(O)C(=O)CO)[C@@]2(C)C=CC(=O)C=C12` [Methylprednisolone, methylprednisolone], the results for the Motor block in the data set on sciatic nerve [2] (setting [14]), with sciatic nerve [2] (setting [20]) and with sciatic nerve [2] (setting [21]) were 13.0 ± 4.0 h, 28.0 ± 5.0 h and 33.0 ± 9.0 h, respectively. The Sensory block in the data set on sciatic nerve [3] (setting [14]) amounted to 20.0 ± 5.0 h; in the data set with sciatic nerve [3] (setting [20]), 28.0 ± 6.0 h; in the data set with sciatic nerve [3] (setting [21]) it was 34.0 ± 11.0 h.
With `CCCCN1CCCCC1C(=O)Nc1c(C)cccc1C` (stereo not shown) [bupivacaine], the “LENGTH OF Blockade or anesthesia effect” value in the data set on sciatic nerve [1] (bupivacaine 3 mg/kg rat, no dexamethasone) is 2 to 3 h. The “effect on duration of blockade obtained using bupivacaine microspheres (in words)” value with sciatic nerve [3] (addition of 0.005% (w/w) to the suspending medium) is on record as “did not result in a prolongation”.
As to `C[C@]12CC[C@@H]3c4ccc(O)cc4CC[C@H]3[C@@H]1CC[C@@H]2O` [Estradiol], the Motor block was found to be 12.0 ± 6.0 h in the data set with sciatic nerve [2] (setting [22]) and 9.0 ± 2.0 h in the data set on sciatic nerve [2] (setting [18]). Moreover, the values for the Sensory block in the data set with sciatic nerve [3] (setting [22]) and with sciatic nerve [3] (setting [18]) were 11.0 ± 6.0 h and 8.0 ± 1.0 h, respectively. Moreover, the “degree” value in the data set with sciatic nerve [3] (setting [13]) is given as “no blockade-prolonging effect”.
`CNC[C@H](O)c1ccc(O)c(O)c1` [Epinephrine]: the Motor block was 12.0 ± 4.0 h with sciatic nerve [2] (setting [23]) and 11.0 ± 3.0 h with sciatic nerve [2] (setting [14]). Besides, the “systemic toxicity (in words)” value in data set [5] is “considerable systemic toxicity, but no deaths”. The Sensory block in the data set on sciatic nerve [3] (setting [23]) turned out to be 12.0 ± 6.0 h; with sciatic nerve [3] (setting [14]), 14.0 ± 5.0 h. For the same compound, in the data set on sciatic nerve [3] (setting [13]), the “degree” value is given as “did not substantially prolong”.
